Measured values as given in patent US20240197712A1, “TGF-BETA INHIBITION FOR IMMUNODEFICIENCY VIRUS REACTIVATION FROM LATENCY, ENHANCEMENT OF IMMUNODEFICIENCY VIRUS-SPECIFIC RESPONSES AND IMMUNODEFICIENCY VIRUS CURE” (Northwestern University, priority 2022, published 2024).

Experiments:
Type in all cases: in vivo, rhesus macaques
SIVmac239M2 = experiment: Cell-associated vDNA in PBMC, colorectal biopsies and lymph nodes
Protocol: Blood was collected in EDTA tubes and plasma was separated by density gradient centrifugation and used for the determination of plasma VL by SIVgag qRT-PCR at NIRC or at Leidos (Quantitative Molecular Diagnostics Core, AIDS and Cancer Virus Program Frederick National Laboratory). Tissue VL from snap frozen PBMC pellets, colorectal biopsies and LN FNA were performed as described in (77). SIV-TILDA was performed on freshly stored PBMC before cycle 1 and at the end of cycle 4 of galunisertib by Accelevir, Baltimore, MD.

Tregs and Tfh cells = experiment: Circulating Treg and Tfh frequencies by flow cytometry
Protocol: Peripheral blood mononuclear cells (PBMCs) collected from 8 macaques at 7 time points spanning Cycle 1 to Cycle 4 (refer to Table 5) were employed for high-parameter flow cytometry staining. Cells from before and after cycle 1 and at the end of cycle 3 were used for Tfh/Treg assay. In both cases, cell fixation and permeabilization for intracellular staining were carried out using the FoxP3 Staining Buffer set (Thermo Fisher Scientific, Carlsbad, CA). The high-dimensional panel consisted of antibodies outlined in Table 4, catering to requirements for surface and intracellular staining, as well as viability assessment. Each antibody was individually titrated to ensure optimal staining conditions. Data acquisition was performed using the FACSymphony A5.2 Spectral Analyzer. Following data collection, spectral compensation was implemented utilizing FlowJo™ v10.8 Software (BD Life Sciences). 60,000 live singlet lymphocytes from each of samples was downsampled to prevent disproportionate representation by samples with higher cell counts, ensuring balanced subsequent analysis. To mitigate batch effects, we utilized the swiftReg Neighbor-Dependent Cluster Registration (NDCR) method available within the SWIFT package(112). This method effectively addresses batch variations while preserving the inherent biological diversity. […] Furthermore, we implemented the Peak Extraction and Cleaning Oriented Quality Control (PeacoQC) procedure (138) in FlowJo™ v10.8 to eliminate low-quality events arising from potential issues like clogs, speed fluctuations, and slow sample uptake. FlowSOM FlowJo plugin was employed for automated cell population identification, preceded by the utilization of Phenograph to obtain optimal cluster numbers for dimensional reduction, for the merged data of All Time points and BC1 vs AC4 merged data respectively. The Supplementary FIG. 29A heatmap illustrates the median fluorescence intensity (MFI) values for all markers across all clusters. […]

TGF-β = experiment: Total TGF-β in plasma by ELISA; conditions: baseline vs W1/2
Description: FIGS. 16A-16B. […] (FIG. 16A) The concentration of total TGF-β in the plasma before and after galunisertib as detected by ELISA is shown. Wilcoxon matched-pairs test was used to compare BL with W1/2 data, Significant p-value of α<0.05 (*) is shown. (FIG. 16B) No correlation is present between the concentration of TGF-β before treatment in blood and the change in Gut-SUVTot in each animal after galunisertib treatment (p=0.199; Person R=0.304).

SIV-env = experiment: ImmunoPET/CT, four-cycle study
Protocol: ImmunoPET/CT for mapping SIV signals in total body scans were conducted in part as reported previously (110). The probe consisted of primatized p7D3 anti-env F(ab)′2 coupled with the chelator DOTA and labeled with Cu64 just prior to administration to the animals. For probe administration, the animals were sedated, and a venous catheter was placed into an arm of leg vein to minimize bleeding of the probe into the tissue surrounding the site of injection. The probe for each animal consisted of ˜1 mg of the p7D3 F(ab)′2 labeled with 2-3 mCi of ^64Cu. After injection, the animals were allowed to recuperate in their cage until the next day. At 24 hours, the animals were again anesthetized with Telazol and the macaque's body was immobilized in dorsal recumbency on the scanner table. Scans were conducted 535 in a Phillips Gemini TF64 scanner. The final CT image was compiled from 200 to 300 slices, depending on macaque size. PET Image analysis was performed using the MIM software. PET/CT fusions were generated scaled according to calculated Standardized Uptake Values (SUV). The SUV scale for the PET scans was selected based on the overall signal intensity of the PET scans (whole body), and the CT scale was selected for optimal visibility of the tissues. All images and maximum image projections were set to the same scale for visual comparisons.
Multimodal registration and ROI segmentation were executed using the MIM software (MIM Software, Inc., Cleveland, OH) for PET and CT images, encompassing 250 to 300 fractions, depending on the macaque's body size. PET and CT images were fused to quantify changes in SUV (Standardized Uptake Value) within Regions of Interest (ROI), with PET SUV scale determined by overall signal intensity and CT scale optimized for tissue visibility. Segmentations were performed for various anatomical regions: Whole Body, Liver, Lymph nodes, Gut, Kidneys, Spleen, and Vertebrae. The external body was outlined for the Whole-Body contour, while the GRADIENT method PET-Edge and interactive contouring tools were employed for other ROIs. Liver segmentation initially utilized PET-Edge in PET coronal-sectional view, followed by interactive delineation for the structure and the corresponding signals. Kidneys, Spleen, and Vertebrae volume were determined based on CT scans in the cross-sectional view, incorporating PET signals into contours. […] To quantify the signal in the axillary lymph nodes, the data-point in each macaque featuring the strongest PET signal was chosen as a basis for an inhouse Multi-Time-Point Contour Transfer Workflow, followed by interactive contouring of the signal to all time points. The workflow integrated CT scans to establish and map specific ROIs in subsequent scans, thereby accounting for any changes in the animal's orientation at other time points through manual adjustments. To quantify the signal in the gut tissue, the body segment below the stomach to above the cervix was initially isolated. The Gut's SUV was then calculated by extracting the spleen, both kidneys, liver, and bones within the designated body region using Boolean operations.

[1] = Clinical pathology (chemistry, hematology) and adverse events
Protocol: 1 mL of blood was collected in EDTA tubes and tested for a standard hematology panel (complete blood count—CBC) using a BECKMAN COULTER DxH600 hematology analyzer. An additional 1 mL of blood was collected into a SST tube, centrifuged to isolate serum, and analyzed for a comprehensive serum chemistry panel using a Siemens's Dimension Clinical Chemistry Analyzer.

With `Cc1cccc(-c2nn3c(c2-c2ccnc4ccc(C(N)=O)cc24)CCC3)n1` [galunisertib, Galunisertib] the “cell-associated SIV DNA in lymph nodes, gut and PBMC” value (SIVmac239M2; 8 macaques, four 2-week cycles) was “Half to 1 Log decrease”, the “CA-vDNA decrease in gut, median” value (SIVmac239M2; BC1 (week 35 pi) vs AC4 (week 49 pi)) was 0.77 folds and the “CA-vDNA decrease in PBMC, range” value (SIVmac239M2; BC1 vs AC3) was 0.28-0.88 folds. The “CA-vDNA decrease in gut, range” value (SIVmac239M2; BC1 vs AC4) was 0.33-0.94 folds, the “CA-vDNA decrease in PBMC, median” value (SIVmac239M2; BC1 vs end of cycle 3 (AC3)) was 0.58 folds and the “cell-associated viral DNA in lymph nodes and colorectal biopsies” value (SIVmac239M2; Example 5, end of cycle 4 vs before Gal) was “decreased by over a Log”. The “CA-vDNA decrease in LN, median” value (SIVmac239M2; right axillary LN, BC1 vs AC4) was 0.93 folds, the “CA-vDNA decrease in LN, range” value (SIVmac239M2; right axillary LN, BC1 vs AC4) was 0.33-0.98 folds and the “circulating Tfh (CXCR5+PD1+) within total and central memory CD4+ T cells” value (Tregs and Tfh cells; end of treatment) was “lower”. For the same compound, the “frequency of CD4+ Tregs (CD25high FoxP3+) and CD8+ Tregs” value (Tregs and Tfh cells; remained higher until end of 3rd cycle) was “increased after the first cycle”, the “expression of CD39 on total and central memory CD4+ T cells” value (Tregs and Tfh cells; rhesus monkey, in vivo) was “lower” and the “levels of TGF-β in blood after treatment” value (TGF-β) was “increases in the levels of TGF-β”. The “SIV reactivation in tissues by PET/CT” value (SIV-env; Example 5, all macaques, particularly after cycle 2) was “Extensive SIV reactivation”, the “SUV increase in gastrointestinal area and axillary lymph nodes” value (SIV-env; compared to before cycle 1 (BC1)) was “significant in cycle 3” and the “SUV at the level of the spleen or kidney” value (SIV-env; vs BC1) was “No SUV increase”. The “SUV in the liver and whole-body” value (SIV-env; vs BC1) was “significant increase in SUV”, the “Spine SUV” value (SIV-env; vs BC1) was “increased significantly with the first cycle” and the “clinical variables (chemistry and hematology)” value ([1]; before, during and after therapy) was “No significant changes”. For the same compound, the adverse events ([1]; macaque studies) was “no adverse events”.
